In patent publication US12037324B2, “Biarylmethyl heterocycles” (Université de Montréal, priority 2016, dated 2024):

Tests used:
[1] = molecular target: T1, hAT1R (Homo sapiens, UniProt P30556); experiment: cell-based; details: Low AT1R Expression; for EC50: read-out: BRET β-Arrestin2 Low AT1R Expression EC50
T1 sequence (P30556 1-359): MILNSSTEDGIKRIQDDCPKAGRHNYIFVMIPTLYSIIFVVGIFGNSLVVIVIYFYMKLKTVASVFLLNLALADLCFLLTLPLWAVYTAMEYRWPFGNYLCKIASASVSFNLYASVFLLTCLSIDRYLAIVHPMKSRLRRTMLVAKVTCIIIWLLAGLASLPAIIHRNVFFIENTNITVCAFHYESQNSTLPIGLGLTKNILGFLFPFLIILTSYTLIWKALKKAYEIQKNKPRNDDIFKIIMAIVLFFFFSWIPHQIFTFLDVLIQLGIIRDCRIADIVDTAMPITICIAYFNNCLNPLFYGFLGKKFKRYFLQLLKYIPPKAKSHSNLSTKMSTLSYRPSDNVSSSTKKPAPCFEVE

[2] = molecular target: T2, AGTR1 (Homo sapiens, UniProt P30556); experiment: DiscoveRx β-arrestin2 recruitment assay (enzyme complementation, Pathunter CHO-K1 AGTR1 β-arrestin cell line); type: cell-based; details: DiscoveRx β-arrestin2 recruitment; for DiscoveRx β-arrestin2 Ymax (%): maximal response
T2 construct: host or cells: Pathunter CHO-K1 AGTR1 β-arrestin cell line (CHO-K1)
T2 sequence (P30556 1-359): T1 sequence (P30556 1-359)
In short: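 Chemiluminescent enzyme-complementation read-out of β-arrestin2 recruitment to AGTR1 in engineered CHO-K1 cells after 90 min compound exposure at 37° C. Values are 4-parameter logistic EC50s in agonist mode, IC50s in antagonist mode, with efficacy relative to the maximal All response.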

[3] = molecular target: T1, hAT1R; experiment: BRET β-arrestin2 biosensor assay, higher receptor expression (hAT1R 5 ng/well), HEK293 cells; type: cell-based; details: for EC50: High AT1R Expression
[4] = molecular target: T2, AGTR1; experiment: DiscoveRx IP1 accumulation assay (HTRF), agonist mode, Pathunter CHO-K1 AGTR1 β-arrestin cell line; type: cell-based; details: for EC50: read-out: IP-1 EC50
In short: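 Agonist mode in CHO-K1 AGTR1 β-arrestin cells plated 14-16 h before; compounds at varying concentrations for 90 min at 37° C, IP1 accumulation read by HTRF (D2-conjugate and anti-IP1 cryptate, 20 min room temperature). EC50 from 4-parameter logistic fit; activity given as percentage of maximal AII effect.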

[5] = molecular target: T1, hAT1R; experiment: cell-based; details: agonist mode; for EC50: read-out: BRET P63 EC50

SMILES | BRET β-Arrestin2 Low AT1R Expression Ymax (%) [1] [%] | EC50 [1] [nM] | EC50 [2] [nM] | DiscoveRx β-arrestin2 Ymax (%) [2] [%] | BRET β-Arrestin2 High AT1R Expression Ymax (%) [3] [%] | EC50 [3] [nM] | IP-1 Ymax (%) [4] [%] | EC50 [4] [nM] | BRET P63 Ymax [5] [%] | EC50 [5] [nM]
CCc1nc2c(C)cc(C)nc2n1Cc1ccc(-c2cc(-c3cc(C)cc(C)c3)ccc2-c2nn[nH]n2)cc1 [Example 9] | 80.3 | 9.4 | 3.7 | 66.7 | 87.8 | 5.6 | 7.1 | 8.7 | 14.2 | 19.5
CCc1nc2c(C)cc(C)nc2n1Cc1ccc(-c2cc(-c3ccccc3O)ccc2-c2nn[nH]n2)cc1 [Example 10] | 86.8 | 2.4 | 1.4 | 60.3 | 86.9 | 1.4 | 14.4 | 5 | 26.1 | 2.8
CCc1nc2c(C)cc(C)nc2n1Cc1ccc(-c2cc(-c3cccc(OC)c3)ccc2-c2nn[nH]n2)cc1 [Example 20] | 59.5 | 12.2 | 4.9 | 38.7 | 85.5 | 4.3 | 9.9 | 12.8 | 12.0 | 10.8
CCc1nc2c(C)cc(C)nc2n1Cc1ccc(-c2cc(-n3cccn3)ccc2-c2nn[nH]n2)cc1 [Example 25] | 10.1 | 32.9 | 15.9 | 23.1 | 74.5 | 19.8 | 6.7 | 40.8 | – | > 100000
CCc1nc2c(C)cc(C)nc2n1Cc1ccc(-c2cc(-c3ccccn3)ccc2-c2nn[nH]n2)cc1 [Example 30, 2-Ethyl-5,7-dimethyl-3-((5′-(pyridin-2-yl)-2′-(2H-tetrazol-5-yl)-[1,1′-biphenyl]-4-yl)methyl)-3H-imidazo[4,5-b]pyridine] | 72.9 | 14.5 | 4.9 | 48.0 | 87.5 | 5.6 | 12.3 | 15.9 | 23.5 | 19.1
CCc1nc2c(C)cc(C)nc2n1Cc1ccc(-c2cc(-c3ccccc3)ccc2-c2noc(=O)[nH]2)cc1 [Example 32, 3-(4″-((2-ethyl-5,7-dimethyl-3H-imidazo[4,5-b]pyridin-3-yl)methyl)-[1,1′:3′,1″-terphenyl]-4′-yl)-1,2,4-oxadiazol-5(4H)-one] | 80.9 | 12.5 | 34.3 | 86.1 | 91.6 | 5.1 | 10.8 | 38.4 | 25.2 | 21.1
CCCCC1=NC2(CCCC2)C(=O)N1Cc1ccc(-c2cc(-c3ccccc3)ccc2-c2nn[nH]n2)cc1 [Example 33] | 27.5 | 26.7 | 9.7 | 29.9 | 83.0 | 16.5 | 3.3 | 80.8 | – | > 10000
CCc1nc2c(C)cc(C)nc2n1Cc1ccc(-c2cc(-c3cc(F)cc(F)c3)ccc2-c2nn[nH]n2)cc1 [Example 53] | 61.8 | 14 | 2.6 | 39.4 | 90.6 | 5.4 | 5.8 | 7.9 | – | > 100000
CCc1nc2c(C)cc(C)nc2n1Cc1ccc(-c2cc(-c3nccs3)ccc2-c2nn[nH]n2)cc1 [Example 56] | 14.2 | 54 | 58.3 | 20.8 | 63.0 | 48.9 | – | > 100000 | 4.0 | 42.6
CCc1nc2c(C)cc(C)nc2n1Cc1ccc(-c2cc(-c3ccsn3)ccc2-c2nn[nH]n2)cc1 [Example 57] | 8.9 | 19.9 | 16.6 | 26.3 | 66.3 | 15.2 | – | > 100000 | 5.0 | 14.3
CCc1nc2c(C)cc(C)nc2n1Cc1ccc(-c2cc(-c3cccc(C)n3)ccc2-c2nn[nH]n2)cc1 [Example 59] | – | > 10000 | 12.5 | 29.5 | 52.1 | 14 | 10.4 | 21.9 | – | > 10000
CCc1nc2c(C)cc(C)nc2n1Cc1ccc(-c2cc(-c3cncc(C)c3)ccc2-c2nn[nH]n2)cc1 [Example 60] | 39.4 | 93.3 | 53.7 | 33.5 | 85.8 | 19.6 | 5.3 | 83.1 | – | > 10000
CCc1nc2c(C)cc(C)nc2n1Cc1ccc(-c2cc(-c3cccc(C(F)(F)F)n3)ccc2-c2nn[nH]n2)cc1 [Example 61] | 38.2 | 108 | 31.5 | 43.7 | 81.4 | 16.1 | 9.8 | 150 | 6.4 | 22.3
CCc1nc2c(C)cc(C)nc2n1Cc1ccc(-c2cc(-c3ccc(CO)cc3)ccc2-c2nn[nH]n2)cc1 [Example 63] | 59.3 | 26.5 | 10.2 | 26.1 | 76.6 | 7.5 | 21.4 | 51.3 | 12.4 | 23.2
CCc1nc2c(C)cc(C)nc2n1Cc1ccc(-c2cc(-c3cc(C)ccn3)ccc2-c2nn[nH]n2)cc1 [Example 64] | 98.7 | 3.1 | 6.9 | 67.8 | 92.5 | 1.9 | 30.8 | 23.2 | 41.3 | 2.6
CCc1nc2c(C)cc(C)nc2n1Cc1ccc(-c2cc(-c3ccccc3)ccc2-c2noc(=S)[nH]2)cc1 [Example 72, 3-(4″-((2-ethyl-5,7-dimethyl-3H-imidazo[4,5-b]pyridin-3-yl)methyl)-[1,1′:3′,1″-terphenyl]-4′-yl)-1,2,4-oxadiazole-5(4H)-thione] | 44.4 | 58.2 | 22.6 | 63.6 | 85.8 | 33.2 | 8.5 | 92 | 11.8 | 43
CCc1nc2c(C)cc(C)nc2n1Cc1ccc(-c2cc(N3CCCC(F)(F)C3)ccc2-c2nn[nH]n2)cc1 [Example 83] | 43.1 | 152 | 23.9 | 40.5 | 87.3 | 52.1 | 9.0 | 26.9 | 8.2 | 54.8
CCC1=NC2(CCCC2)C(=O)N1Cc1ccc(-c2cc(-c3ccccc3)ccc2-c2nn[nH]n2)cc1 [Example 112, 3-((6′-(2H-tetrazol-5-yl)-[1,1′:3′,1″-terphenyl]-4-yl)methyl)-2-ethyl-1,3-diazaspiro[4.4]non-1-en-4-one] | 39.3 | 174 | 124 | 33.4 | 78.5 | 30.6 | 7.7 | 284 | 8.2 | 46.8
